The text below walks through data of patent US6753010B2, “Soft gelatin capsule containing angelica oil” (Shandong Luye Phamaceutical Co., Ltd., priority 2000, dated 2004).

The series can be described thus: Influence of temperature on ligustilide content in angelica essential oil (gas chromatography, internal standard diethyl phthalate). In kind it is physicochemical. The conditions noted are these: for Content of ligustilide: in angelica essential oil, sealed vial. The procedure: Gas chromatograph (Shimadzu GC-14B); Diethyl phthalate (Shanghai First Reagents Factory, purity is 99.7% tested by gas chromatography with area normalization method); angelica essential oil (991007).
Test group: Five portions of angelica essential oil (30 μl each) are placed separately in five 7 ml-sealing vials numbered with 0, 1, 2, 3 and 4, weighed accurately and sealed. The vials are laid in an oven (100° C.) and the samples are taken out of the oven after 0, 1, 2, 3 and 4 hours respectively. Anabout 16 μl of diethyl phthalate as the internal standard is added. Then the samples are weighed accurately and diluted with ca. 1 ml of ethyl alcohol additionally. According to the method in the item of ? Purity Test ? under “Protocol and Remarks of the Quality standard for Angelica essential oil” the content of ligustilide is determined.
Control group: Five portions of angelica essential oil (30 μl each) are placed separately in five 7 ml-sealing vials numbered with 0′, 1′, 2′, 3′ and 4′, weighed accurately and sealed. The vials are laid aside under room temperature of 20° C. and about 16 μl of diethyl phthalate as internal standard is added after 0, 1, 2, 3 and 4 hours respectively. […] with ca. 1 ml of ethyl alcohol additionally. According to the method in the item of ? Purity Test ? under “Protocol and Remarks of the Quality standard for Angelica essential oil”, the content of ligustilide is determined.

Turning to `CCC/C=C1\OC(=O)C2=C1CCC=C2` [ligustilide], the “Stability of ligustilide content (in words)” value (in angelica essential oil under room temperature (20° C.)) is “relatively stable” and the “Stability of ligustilide content (in words)” value (in angelica essential oil under temperature of 100° C.) was “decreases gradually”. Besides, the Content of ligustilide (higher temperature (100° C.), 0 hour) worked out at 55.50%; the Content of ligustilide (higher temperature (100° C.), 1 hour) turned out to be 41.89%; the Content of ligustilide (higher temperature (100° C.), 2 hours) was 32.74%; the Content of ligustilide (higher temperature (100° C.), 3 hours) was found to be 21.89%; the Content of ligustilide (higher temperature (100° C.), 4 hours) was 12.00%; the Content of ligustilide (room temperature (20° C.), 0 hour) amounted to 55.5%. The same compound came in with a Content of ligustilide (room temperature (20° C.), 1 hour) of 56.01%; a Content of ligustilide (room temperature (20° C.), 2 hours) of 56.66%; a Content of ligustilide (room temperature (20° C.), 3 hours) of 55.78%; a Content of ligustilide (room temperature (20° C.), 4 hours) of 55.39%.
